Reference: the NIST ThermoML archive (doi:10.1021/je050052+)

Test: excess molar enthalpy (molar enthalpy of mixing); xn = mol fraction of the nth substance listed
Settings: Liquid, Flow calorimetry

COC(=O)OC [dimethyl carbonate] + CO
Settings	excess molar enthalpy [kcal/mol]
298.15 K, 1000 kPa, x2 = 0.25	0.2729
298.15 K, 1000 kPa, x2 = 0.3	0.2933
298.15 K, 1000 kPa, x2 = 0.35	0.3075
298.15 K, 1000 kPa, x2 = 0.4	0.315
298.15 K, 1000 kPa, x2 = 0.45	0.3163
298.15 K, 1000 kPa, x2 = 0.5	0.313
298.15 K, 1000 kPa, x2 = 0.55	0.3034
298.15 K, 1000 kPa, x2 = 0.6	0.2901
298.15 K, 1000 kPa, x2 = 0.65	0.2735
298.15 K, 1000 kPa, x2 = 0.7	0.2508
298.15 K, 1000 kPa, x2 = 0.75	0.2229
298.15 K, 1000 kPa, x2 = 0.8	0.1931
313.15 K, 100 kPa, x2 = 0.048	0.0748
313.15 K, 100 kPa, x2 = 0.1	0.1539
313.15 K, 100 kPa, x2 = 0.1492	0.2119
313.15 K, 100 kPa, x2 = 0.2014	0.2621
313.15 K, 100 kPa, x2 = 0.2506	0.2976
313.15 K, 100 kPa, x2 = 0.302	0.3238
313.15 K, 100 kPa, x2 = 0.3503	0.341
313.15 K, 100 kPa, x2 = 0.4001	0.3506
313.15 K, 100 kPa, x2 = 0.451	0.3535
313.15 K, 100 kPa, x2 = 0.4985	0.3472
313.15 K, 100 kPa, x2 = 0.5501	0.3409
313.15 K, 100 kPa, x2 = 0.6014	0.3255
313.15 K, 100 kPa, x2 = 0.6489	0.3073
313.15 K, 100 kPa, x2 = 0.6987	0.2839
313.15 K, 100 kPa, x2 = 0.7499	0.254
313.15 K, 100 kPa, x2 = 0.7992	0.2162
313.15 K, 100 kPa, x2 = 0.851	0.1699
313.15 K, 100 kPa, x2 = 0.95	0.0561
313.15 K, 1000 kPa, x2 = 0.0477	0.08505
313.15 K, 1000 kPa, x2 = 0.0994	0.158
313.15 K, 1000 kPa, x2 = 0.1484	0.2155
313.15 K, 1000 kPa, x2 = 0.2003	0.2637
313.15 K, 1000 kPa, x2 = 0.2493	0.2969
313.15 K, 1000 kPa, x2 = 0.3006	0.3229
313.15 K, 1000 kPa, x2 = 0.3487	0.3403
313.15 K, 1000 kPa, x2 = 0.3985	0.3519
313.15 K, 1000 kPa, x2 = 0.4493	0.3546
313.15 K, 1000 kPa, x2 = 0.5006	0.3496
313.15 K, 1000 kPa, x2 = 0.5485	0.3404
313.15 K, 1000 kPa, x2 = 0.5998	0.3247
313.15 K, 1000 kPa, x2 = 0.6504	0.3053
313.15 K, 1000 kPa, x2 = 0.7001	0.2815
313.15 K, 1000 kPa, x2 = 0.7512	0.2509
313.15 K, 1000 kPa, x2 = 0.8005	0.2149
313.15 K, 1000 kPa, x2 = 0.8501	0.1691
313.15 K, 1000 kPa, x2 = 0.9497	0.0534
313.15 K, 10000 kPa, x2 = 0.0477	0.08818
313.15 K, 10000 kPa, x2 = 0.0994	0.1621
313.15 K, 10000 kPa, x2 = 0.1484	0.2188
313.15 K, 10000 kPa, x2 = 0.2003	0.2659
313.15 K, 10000 kPa, x2 = 0.2493	0.2989
313.15 K, 10000 kPa, x2 = 0.3006	0.3252
313.15 K, 10000 kPa, x2 = 0.3487	0.3416
313.15 K, 10000 kPa, x2 = 0.3985	0.3512
313.15 K, 10000 kPa, x2 = 0.4493	0.3536
313.15 K, 10000 kPa, x2 = 0.5006	0.3509
313.15 K, 10000 kPa, x2 = 0.5485	0.3423
313.15 K, 10000 kPa, x2 = 0.5998	0.3285
313.15 K, 10000 kPa, x2 = 0.6504	0.3088
313.15 K, 10000 kPa, x2 = 0.7001	0.2842
313.15 K, 10000 kPa, x2 = 0.7512	0.2511
313.15 K, 10000 kPa, x2 = 0.8005	0.2158
313.15 K, 10000 kPa, x2 = 0.8501	0.1733
313.15 K, 10000 kPa, x2 = 0.9497	0.0561
328.15 K, 1000 kPa, x2 = 0.05	0.09171
328.15 K, 1000 kPa, x2 = 0.1	0.1733
328.15 K, 1000 kPa, x2 = 0.15	0.2349
328.15 K, 1000 kPa, x2 = 0.2	0.2867
328.15 K, 1000 kPa, x2 = 0.25	0.3264
328.15 K, 1000 kPa, x2 = 0.3	0.3555
328.15 K, 1000 kPa, x2 = 0.35	0.375
328.15 K, 1000 kPa, x2 = 0.4	0.3883
328.15 K, 1000 kPa, x2 = 0.45	0.3934
328.15 K, 1000 kPa, x2 = 0.5	0.3894
328.15 K, 1000 kPa, x2 = 0.55	0.3796
328.15 K, 1000 kPa, x2 = 0.6	0.3638
328.15 K, 1000 kPa, x2 = 0.65	0.3412
328.15 K, 1000 kPa, x2 = 0.7	0.3139
328.15 K, 1000 kPa, x2 = 0.75	0.279
328.15 K, 1000 kPa, x2 = 0.8	0.2383
328.15 K, 1000 kPa, x2 = 0.8509	0.1886
328.15 K, 1000 kPa, x2 = 0.95	0.0625
